Assay results from paper PMC11397024, “Strategic Fluorination to Achieve a Potent, Selective, Metabolically Stable, and Orally Bioavailable Inhibitor of CSNK2” (Molecules, 2024).

Experiments:
Test in all cases: NanoBRET K192
Format in all cases: cell-based
Conditions in all cases: HEK293
TXK = target: T1, TXK (Homo sapiens, UniProt P42681)
T1 construct: host or cells: HEK293
Procedure: (§1) The K192 selectivity assay was run according to the Draft Promega technical manual, NanoBRET^TM Target Engagement K192 Kinase Selectivity System. Reagents were supplied by Promega (Promega NP 4101). For the assay, DNA from the prepared kinase vector panel plates A and B were mixed with Fugene in 96-well plates (Corning 3917) and incubated at room temperature for 30 min. The NanoLuc® Low control vector pNL1.1.CMV [Nluc/CMV] Vector (Cat.# N1091) and the transfection control vector NanoLuc®-HIPK2 Fusion Vector (Cat.# NV3221) were used as controls.
(§2) HEK293 cells were grown to 75–95% confluency in DMEM (Gibco 11995-065) supplemented with FBS (Avantor 97068-085) at 37 °C in […]. On the first day of the assay, cells were harvested and resuspended in Opti-MEM (Gibco 11058-021) supplemented with 1% FBS (Avantor 97068-085) at 2.5 × 10^5 cells per mL. A volume of 60 μL of cell suspension was mixed with 10 μL of prepared DNA (10X concentration) and 30 μL of Fugene (30 μL/mL in Opti-MEM) as outlined by Promega and incubated overnight at 37 °C in a 5% CO2 incubator.
(§3) On day two of the assay, 5 μL of 20X K10 tracer was prepared and added at concentrations recommended by Promega. Then, 10 μL of test compounds at 100 μM in Opti-MEM (diluted from a 10 mM solution in DMSO) was added to the test wells while an equivalent volume of Opti-MEM was added to the high-control wells. Plates were kept at 37 °C in a 5% CO2 incubator for two hours. After two hours, plates were allowed to equilibrate to room temperature for 15 min. A solution of 3X Complete Substrate plus Inhibitor Solution was freshly prepared, consisting of a 1:166 dilution of NanoBRET™ Nano-Glo® Substrate plus a 1:500 dilution of Extracellular NanoLuc® Inhibitor in Opti-MEM® medium without serum or phenol red. A 50 μL volume of the 3X Complete Substrate plus Inhibitor Solution was added to each assay well, including control wells. After 2–3 min, the plate was shaken at 300 RPM for 10 s, and the donor emission wavelength (450 nm) and acceptor emission wavelength (610 nm) were measured using the Glomax® Discover System.
(§4) As a quality check, the donor signal-to-background ratio was calculated for each individual kinase by dividing the mean donor signal for each kinase by the mean donor signal for the signal-to-background control wells. Fractional occupancy of the test drug for each kinase was determined using the following formula:Occupancy (%) = [1 − (Sample − Bottom)/(Top − Bottom)] × 100 where

IRAK4 = target: T2, IRAK4 (Homo sapiens, UniProt Q9NWZ3)
T2 construct: purchased Promega (NanoBRET Target Engagement K192 Kinase Selectivity System)
Procedure: as §1, §2, §3, §4

MARK4 = target: T3, MARK4 (Homo sapiens, UniProt Q96L34)
T3 construct: purchased Promega (NanoBRET Target Engagement K192 Kinase Selectivity System)
Procedure: as §1, §2, §3, §4

AURKC = target: T4, AURKC (Homo sapiens, UniProt Q9UQB9)
T4 construct: purchased Promega (NanoBRET Target Engagement K192 Kinase Selectivity System)
Procedure: as §1, §2, §3, §4

CAMK2A = target: T5, CAMK2A (Homo sapiens, UniProt Q9UQM7)
T5 construct: purchased Promega (NanoBRET Target Engagement K192 Kinase Selectivity System)
Procedure: as §1, §2, §3, §4

NTRK1v1 = target: T6, NTRK1v1 (Homo sapiens, UniProt P04629)
T6 construct: purchased Promega (NanoBRET Target Engagement K192 Kinase Selectivity System)
Procedure: as §1, §2, §3, §4

FGFR1 = target: T7, FGFR1 (Homo sapiens, UniProt P11362)
T7 construct: purchased Promega (NanoBRET Target Engagement K192 Kinase Selectivity System)
Procedure: as §1, §2, §3, §4

MAST3 = target: T8, MAST3 (Homo sapiens, UniProt O60307)
T8 construct: purchased Promega (NanoBRET Target Engagement K192 Kinase Selectivity System)
Procedure: as §1, §2, §3, §4

NLK = target: T9, NLK (Homo sapiens, UniProt Q9UBE8)
T9 construct: purchased Promega (NanoBRET Target Engagement K192 Kinase Selectivity System)
Procedure: as §1, §2, §3, §4

MAPK11 = target: T10, MAPK11 (Homo sapiens, UniProt Q15759)
T10 construct: purchased Promega (NanoBRET Target Engagement K192 Kinase Selectivity System)
Procedure: as §1, §2, §3, §4

PTK6 = target: T11, PTK6 (Homo sapiens, UniProt Q13882)
T11 construct: purchased Promega (NanoBRET Target Engagement K192 Kinase Selectivity System)
Procedure: as §1, §2, §3, §4

MAP4K3 = target: T12, MAP4K3 (Homo sapiens, UniProt Q8IVH8)
T12 construct: purchased Promega (NanoBRET Target Engagement K192 Kinase Selectivity System)
Procedure: as §1, §2, §3, §4

INSR = target: T13, INSR (Homo sapiens, UniProt P06213)
T13 construct: purchased Promega (NanoBRET Target Engagement K192 Kinase Selectivity System)
Procedure: as §1, §2, §3, §4

STK36 = target: T14, STK36 (Homo sapiens, UniProt Q9NRP7)
T14 construct: host or cells: HEK293
Procedure: as §1, §2, §3, §4

NEK5 = target: T15, NEK5 (Homo sapiens, UniProt Q6P3R8)
T15 construct: purchased Promega (NanoBRET Target Engagement K192 Kinase Selectivity System)
Procedure: as §1, §2, §3, §4

TNK2 = target: T16, TNK2 (Homo sapiens, UniProt Q07912)
T16 construct: purchased Promega (NanoBRET Target Engagement K192 Kinase Selectivity System)
Procedure: as §1, §2, §3, §4

LRRK2 = target: T17, LRRK2 (Homo sapiens, UniProt Q5S007)
T17 construct: purchased Promega (NanoBRET Target Engagement K192 Kinase Selectivity System)
Procedure: as §1, §2, §3, §4

TLK1 = target: T18, TLK1 (Homo sapiens, UniProt Q9UKI8)
T18 construct: host or cells: HEK293
Procedure: as §1, §2, §3, §4

RPS6KA3 = target: T19, RPS6KA3 (Homo sapiens, UniProt P51812)
T19 construct: purchased Promega (NanoBRET Target Engagement K192 Kinase Selectivity System)
Procedure: as §1, §2, §3, §4

MAPK6 = target: T20, MAPK6 (Homo sapiens, UniProt Q16659)
T20 construct: purchased Promega (NanoBRET Target Engagement K192 Kinase Selectivity System)
Procedure: as §1, §2, §3, §4

BRSK1 = target: T21, BRSK1 (Homo sapiens, UniProt Q8TDC3)
T21 construct: purchased Promega (NanoBRET Target Engagement K192 Kinase Selectivity System)
Procedure: as §1, §2, §3, §4

JAK2 (V617F) = target: T22, JAK2 (V617F) (Homo sapiens, UniProt O60674, V617F)
T22 construct: purchased Promega (NanoBRET Target Engagement K192 Kinase Selectivity System)
Procedure: as §1, §2, §3, §4

RPS6KA6 = target: T23, RPS6KA6 (Homo sapiens, UniProt Q9UK32)
T23 construct: purchased Promega (NanoBRET Target Engagement K192 Kinase Selectivity System)
Procedure: as §1, §2, §3, §4

RON = target: T24, RON (Homo sapiens, UniProt Q04912)
T24 construct: purchased Promega (NanoBRET Target Engagement K192 Kinase Selectivity System)
Procedure: as §1, §2, §3, §4

FGFR4 = target: T25, FGFR4 (Homo sapiens, UniProt P22455)
T25 construct: purchased Promega (NanoBRET Target Engagement K192 Kinase Selectivity System)
Procedure: as §1, §2, §3, §4

PTK2B = target: T26, PTK2B (Homo sapiens, UniProt Q14289)
T26 construct: purchased Promega (NanoBRET Target Engagement K192 Kinase Selectivity System)
Procedure: as §1, §2, §3, §4

TBK1 = target: T27, TBK1 (Homo sapiens, UniProt Q9UHD2)
T27 construct: purchased Promega (NanoBRET Target Engagement K192 Kinase Selectivity System)
Procedure: as §1, §2, §3, §4

HIPK4 = target: T28, HIPK4 (Homo sapiens, UniProt Q8NE63)
T28 construct: purchased Promega (NanoBRET Target Engagement K192 Kinase Selectivity System)
Procedure: as §1, §2, §3, §4

T28 sequence (Q8NE63 whole entry): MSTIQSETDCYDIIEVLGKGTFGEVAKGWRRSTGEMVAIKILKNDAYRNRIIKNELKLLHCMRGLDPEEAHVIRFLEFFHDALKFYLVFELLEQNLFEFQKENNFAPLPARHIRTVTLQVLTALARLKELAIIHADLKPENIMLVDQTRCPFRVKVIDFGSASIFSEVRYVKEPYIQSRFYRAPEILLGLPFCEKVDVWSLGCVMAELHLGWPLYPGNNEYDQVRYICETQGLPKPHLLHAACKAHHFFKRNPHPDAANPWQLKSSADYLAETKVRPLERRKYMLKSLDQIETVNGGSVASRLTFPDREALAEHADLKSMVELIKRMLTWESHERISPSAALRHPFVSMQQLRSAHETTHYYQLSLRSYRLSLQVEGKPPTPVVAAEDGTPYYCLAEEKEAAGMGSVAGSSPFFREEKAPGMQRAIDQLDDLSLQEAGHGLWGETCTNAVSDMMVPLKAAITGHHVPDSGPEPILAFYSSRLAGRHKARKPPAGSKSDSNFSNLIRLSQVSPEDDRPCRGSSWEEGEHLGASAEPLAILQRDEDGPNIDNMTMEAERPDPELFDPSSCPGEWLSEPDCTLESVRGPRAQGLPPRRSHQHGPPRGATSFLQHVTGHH
T25 sequence (P22455 22-802): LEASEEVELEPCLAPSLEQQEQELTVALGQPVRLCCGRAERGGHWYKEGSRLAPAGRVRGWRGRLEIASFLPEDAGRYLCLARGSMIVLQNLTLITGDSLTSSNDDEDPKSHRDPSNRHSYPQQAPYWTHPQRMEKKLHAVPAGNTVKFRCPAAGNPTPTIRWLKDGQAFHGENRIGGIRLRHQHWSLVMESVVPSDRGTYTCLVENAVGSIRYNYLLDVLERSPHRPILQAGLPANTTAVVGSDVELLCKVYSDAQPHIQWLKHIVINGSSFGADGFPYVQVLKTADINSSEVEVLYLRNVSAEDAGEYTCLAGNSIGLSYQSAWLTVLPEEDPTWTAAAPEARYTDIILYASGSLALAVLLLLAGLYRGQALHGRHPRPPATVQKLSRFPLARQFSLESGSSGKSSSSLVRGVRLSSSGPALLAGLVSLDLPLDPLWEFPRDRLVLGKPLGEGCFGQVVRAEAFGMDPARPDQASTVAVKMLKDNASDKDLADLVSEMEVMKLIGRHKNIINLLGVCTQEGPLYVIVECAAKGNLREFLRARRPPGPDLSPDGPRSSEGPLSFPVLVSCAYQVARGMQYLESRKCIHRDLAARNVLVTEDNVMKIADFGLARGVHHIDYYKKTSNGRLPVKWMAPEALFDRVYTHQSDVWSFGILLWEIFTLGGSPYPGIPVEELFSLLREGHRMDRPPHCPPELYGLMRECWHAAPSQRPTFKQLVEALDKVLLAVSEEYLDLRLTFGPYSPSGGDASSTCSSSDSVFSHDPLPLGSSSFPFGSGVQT
T2 sequence (Q9NWZ3 whole entry): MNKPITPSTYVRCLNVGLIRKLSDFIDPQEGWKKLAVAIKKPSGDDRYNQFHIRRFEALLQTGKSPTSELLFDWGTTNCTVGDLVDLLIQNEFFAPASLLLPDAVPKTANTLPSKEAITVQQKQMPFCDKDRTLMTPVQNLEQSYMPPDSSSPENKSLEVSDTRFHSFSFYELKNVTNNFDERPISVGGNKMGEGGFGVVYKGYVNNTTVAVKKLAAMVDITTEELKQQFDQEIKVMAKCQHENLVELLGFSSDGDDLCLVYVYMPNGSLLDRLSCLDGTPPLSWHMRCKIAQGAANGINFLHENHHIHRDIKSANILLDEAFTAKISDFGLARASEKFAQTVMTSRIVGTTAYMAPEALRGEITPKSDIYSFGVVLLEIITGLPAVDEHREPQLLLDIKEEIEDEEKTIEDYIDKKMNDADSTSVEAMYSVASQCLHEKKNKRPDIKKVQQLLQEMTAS
T8 sequence (O60307 whole entry): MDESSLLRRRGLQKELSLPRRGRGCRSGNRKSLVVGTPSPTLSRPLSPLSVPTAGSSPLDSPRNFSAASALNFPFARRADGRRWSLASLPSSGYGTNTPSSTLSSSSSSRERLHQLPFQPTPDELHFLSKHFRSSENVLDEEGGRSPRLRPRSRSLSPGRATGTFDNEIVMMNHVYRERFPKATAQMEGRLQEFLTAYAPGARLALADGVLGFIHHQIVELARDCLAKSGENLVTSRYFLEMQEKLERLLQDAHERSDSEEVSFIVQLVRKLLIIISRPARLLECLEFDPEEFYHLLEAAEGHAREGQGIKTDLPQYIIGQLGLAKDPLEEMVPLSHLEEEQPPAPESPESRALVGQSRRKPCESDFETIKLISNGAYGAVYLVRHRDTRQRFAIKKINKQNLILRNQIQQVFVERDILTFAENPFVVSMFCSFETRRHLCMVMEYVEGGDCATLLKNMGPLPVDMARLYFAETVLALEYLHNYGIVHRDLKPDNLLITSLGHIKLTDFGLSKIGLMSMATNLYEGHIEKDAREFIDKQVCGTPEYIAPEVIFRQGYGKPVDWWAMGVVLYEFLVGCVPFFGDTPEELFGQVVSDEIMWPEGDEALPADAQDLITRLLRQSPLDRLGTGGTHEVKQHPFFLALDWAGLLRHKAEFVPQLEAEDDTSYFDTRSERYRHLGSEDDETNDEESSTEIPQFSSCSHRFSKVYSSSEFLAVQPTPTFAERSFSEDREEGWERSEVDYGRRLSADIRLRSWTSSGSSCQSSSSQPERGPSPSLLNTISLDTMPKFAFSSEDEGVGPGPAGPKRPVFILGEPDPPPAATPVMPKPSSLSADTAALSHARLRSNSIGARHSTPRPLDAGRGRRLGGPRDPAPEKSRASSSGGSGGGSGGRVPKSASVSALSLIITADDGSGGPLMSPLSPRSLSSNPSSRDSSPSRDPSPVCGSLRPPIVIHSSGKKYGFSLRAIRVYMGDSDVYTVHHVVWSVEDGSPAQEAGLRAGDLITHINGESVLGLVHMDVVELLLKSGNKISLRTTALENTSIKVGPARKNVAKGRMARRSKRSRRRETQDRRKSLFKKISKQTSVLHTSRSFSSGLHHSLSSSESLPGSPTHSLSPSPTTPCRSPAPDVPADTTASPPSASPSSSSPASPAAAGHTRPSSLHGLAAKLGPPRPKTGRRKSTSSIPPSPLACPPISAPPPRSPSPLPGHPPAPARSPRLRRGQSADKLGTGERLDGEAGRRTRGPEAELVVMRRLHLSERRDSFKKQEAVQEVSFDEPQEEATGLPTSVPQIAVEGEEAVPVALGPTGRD
T23 sequence (Q9UK32 whole entry): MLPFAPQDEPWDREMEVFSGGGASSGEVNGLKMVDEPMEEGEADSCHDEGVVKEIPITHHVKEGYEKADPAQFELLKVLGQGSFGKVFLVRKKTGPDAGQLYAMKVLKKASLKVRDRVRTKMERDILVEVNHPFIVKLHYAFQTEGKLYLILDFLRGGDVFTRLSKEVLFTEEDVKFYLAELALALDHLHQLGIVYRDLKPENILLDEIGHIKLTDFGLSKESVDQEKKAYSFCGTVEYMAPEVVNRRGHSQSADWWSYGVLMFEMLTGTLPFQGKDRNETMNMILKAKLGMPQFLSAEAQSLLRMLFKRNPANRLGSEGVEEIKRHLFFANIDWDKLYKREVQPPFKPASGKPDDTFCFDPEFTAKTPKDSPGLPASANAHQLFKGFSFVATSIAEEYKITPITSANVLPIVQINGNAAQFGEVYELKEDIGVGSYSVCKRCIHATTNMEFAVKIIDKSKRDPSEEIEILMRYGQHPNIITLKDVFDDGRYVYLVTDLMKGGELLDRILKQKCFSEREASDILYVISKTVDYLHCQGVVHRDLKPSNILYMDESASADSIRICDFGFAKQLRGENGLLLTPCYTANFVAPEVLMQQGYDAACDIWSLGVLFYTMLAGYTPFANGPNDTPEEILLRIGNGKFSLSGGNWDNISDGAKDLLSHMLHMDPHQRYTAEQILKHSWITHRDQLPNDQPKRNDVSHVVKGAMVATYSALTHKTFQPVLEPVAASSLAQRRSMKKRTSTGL
T18 sequence (Q9UKI8 whole entry): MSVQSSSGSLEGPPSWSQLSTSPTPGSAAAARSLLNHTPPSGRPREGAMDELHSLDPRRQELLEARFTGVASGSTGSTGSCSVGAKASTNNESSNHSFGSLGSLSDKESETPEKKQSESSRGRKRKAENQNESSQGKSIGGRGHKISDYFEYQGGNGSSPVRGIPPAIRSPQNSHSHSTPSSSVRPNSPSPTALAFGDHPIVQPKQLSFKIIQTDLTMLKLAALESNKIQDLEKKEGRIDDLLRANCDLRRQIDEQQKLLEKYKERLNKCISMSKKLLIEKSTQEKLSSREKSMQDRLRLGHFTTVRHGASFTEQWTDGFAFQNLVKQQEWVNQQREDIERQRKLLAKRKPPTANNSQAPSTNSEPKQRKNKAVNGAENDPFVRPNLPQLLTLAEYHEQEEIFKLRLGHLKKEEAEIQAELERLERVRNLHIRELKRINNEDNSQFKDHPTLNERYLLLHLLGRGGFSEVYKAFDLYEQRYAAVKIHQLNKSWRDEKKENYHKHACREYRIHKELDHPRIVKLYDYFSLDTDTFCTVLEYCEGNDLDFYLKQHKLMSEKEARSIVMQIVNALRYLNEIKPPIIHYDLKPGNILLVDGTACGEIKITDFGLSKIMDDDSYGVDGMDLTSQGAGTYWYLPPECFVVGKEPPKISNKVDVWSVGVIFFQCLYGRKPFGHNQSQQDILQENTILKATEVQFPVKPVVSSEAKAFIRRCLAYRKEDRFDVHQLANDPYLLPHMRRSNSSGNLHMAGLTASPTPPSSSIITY
T4 sequence (Q9UQB9 whole entry): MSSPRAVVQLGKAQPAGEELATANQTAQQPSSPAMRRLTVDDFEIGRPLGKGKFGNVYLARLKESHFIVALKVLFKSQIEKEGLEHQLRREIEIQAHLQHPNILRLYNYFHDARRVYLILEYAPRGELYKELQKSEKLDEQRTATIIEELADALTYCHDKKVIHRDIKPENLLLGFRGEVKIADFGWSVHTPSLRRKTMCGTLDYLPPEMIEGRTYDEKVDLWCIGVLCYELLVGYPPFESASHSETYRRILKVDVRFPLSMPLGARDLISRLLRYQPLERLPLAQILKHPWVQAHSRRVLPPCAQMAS

CCC(=O)Nc1cc(Nc2cc(NC3CC3)n3ncc(C#N)c3n2)c(F)cc1N1CCC[C@H](NC)C1 [Compound 2, (S)-N-(5-((3-cyano-7-(cyclopropylamino)pyrazolo[1,5-a]pyrimidin-5-yl)amino)-4-fluoro-2-(3-(methylamino)piperidin-1-yl)phenyl)propionamide]
receptor occupancy at 10 µM (TXK): -3.2%
receptor occupancy at 10 µM (IRAK4): 9.2%
receptor occupancy at 10 µM (MARK4): 7.4%
receptor occupancy at 10 µM (AURKC): 4.5%
receptor occupancy at 10 µM (CAMK2A): 12.4%
receptor occupancy at 10 µM (NTRK1v1): 4.6%
receptor occupancy at 10 µM (FGFR1): 10.4%
receptor occupancy at 10 µM (MAST3): -0.9%
receptor occupancy at 10 µM (NLK): 11.9%
receptor occupancy at 10 µM (MAPK11): 9.4%
receptor occupancy at 10 µM (PTK6): 4.4%
receptor occupancy at 10 µM (MAP4K3): 2.9%
receptor occupancy at 10 µM (INSR): 1.2%
receptor occupancy at 10 µM (STK36): -7.6%
receptor occupancy at 10 µM (NEK5): 24.8%
receptor occupancy at 10 µM (TNK2): 12.5%
receptor occupancy at 10 µM (LRRK2): -1.5%
receptor occupancy at 10 µM (TLK1): -23.1%
receptor occupancy at 10 µM (RPS6KA3): 1.8%
receptor occupancy at 10 µM (MAPK6): 14.6%
receptor occupancy at 10 µM (BRSK1): 17.7%
receptor occupancy at 10 µM (JAK2 (V617F)): 13.1%
receptor occupancy at 10 µM (RPS6KA6): 10.6%
receptor occupancy at 10 µM (RON): 7.6%
receptor occupancy at 10 µM (FGFR4): 8.2%
receptor occupancy at 10 µM (PTK2B): -1.6%
receptor occupancy at 10 µM (TBK1): 18.5%
receptor occupancy at 10 µM (HIPK4): 39.9%
